Data taken from ChEMBL document CHEMBL1138184, “Synthesis and structure-activity relationship studies of 1,3-diarylprop-2-yn-1-ones: dual inhibitors of cyclooxygenases and lipoxygenases” (J Med Chem, 2006).
pIC50: −log10 of the molar value.

system: Rattus norvegicus; assay: Anti-inflammatory activity against carrageenan-induced edema in Sprague-Dawley rat paw after 3 hrs of 30 mg/kg, po; format: functional; settings: not given

Row | Compound | ED50
1 | COc1cc(C(=O)C#Cc2ccc(S(C)(=O)=O)cc2)cc(OC)c1OC | 113 mg/kg
2 | CS(=O)(=O)c1ccc(C#CC(=O)c2ccc(C#N)cc2)cc1 | 90 mg/kg
3 | COc1ccc(C(=O)C#Cc2ccc(S(C)(=O)=O)cc2)cc1 | 60.1 mg/kg
4 | CC(=O)Oc1ccccc1C(=O)O [ASPIRIN] | 129 mg/kg
5 | CC(Cc1ccc(O)c(O)c1)C(C)Cc1ccc(O)c(O)c1 (stereo not drawn) [NORDIHYDROGUAIARETIC ACID] | 205 mg/kg

same assay, conditions: dose 30 mg/kg

Row | Compound | inhibition in vivo at 30 mg/kg
6 | CS(=O)(=O)c1ccc(C#CC(=O)c2ccc(C(F)(F)F)cc2)cc1 | 16.2%
7 | COc1cccc(C(=O)C#Cc2ccc(S(C)(=O)=O)cc2)c1 | 24.2%
8 | COc1cc(C(=O)C#Cc2ccc(S(C)(=O)=O)cc2)cc(OC)c1OC | 35.7%
9 | CS(=O)(=O)c1ccc(C#CC(=O)c2ccc(F)c(F)c2)cc1 | 6.8%
10 | CS(=O)(=O)c1ccc(C#CC(=O)c2ccc(C#N)cc2)cc1 | 29.6%
11 | COc1ccc(C(=O)C#Cc2ccc(S(C)(=O)=O)cc2)cc1 | 30.2%
12 | COc1cc(C(=O)C#Cc2ccc(S(C)(=O)=O)cc2)ccc1O | 26%
13 | CS(=O)(=O)c1ccc(C#CC(=O)c2ccc(F)cc2)cc1 | 26.3%
14 | O=C(O)/C=C/c1ccc(O)c(O)c1 [CAFFEIC ACID] | 8.2%
15 | CC(Cc1ccc(O)c(O)c1)C(C)Cc1ccc(O)c(O)c1 (stereo not drawn) [NORDIHYDROGUAIARETIC ACID] | 15.1%

system: Rattus norvegicus; assay: Inhibitory activity against 4% NaCl-induced abdominal constriction in Sprague-Dawley rat after 30 min of 30 mg/kg, po; format: functional; settings: Abdomen, 0.5 h

Row | Compound | inhibition in vivo at 30 mg/kg
16 | CS(=O)(=O)c1ccc(C#CC(=O)c2ccc(C(F)(F)F)cc2)cc1 | 38%
17 | COc1cccc(C(=O)C#Cc2ccc(S(C)(=O)=O)cc2)c1 | 72.6%
18 | COc1cc(C(=O)C#Cc2ccc(S(C)(=O)=O)cc2)cc(OC)c1OC | 60.2%
19 | CS(=O)(=O)c1ccc(C#CC(=O)c2ccc(F)c(F)c2)cc1 | 50.8%
20 | CS(=O)(=O)c1ccc(C#CC(=O)c2ccc(C#N)cc2)cc1 | 48.6%
21 | COc1ccc(C(=O)C#Cc2ccc(S(C)(=O)=O)cc2)cc1 | 42.7%
22 | COc1cc(C(=O)C#Cc2ccc(S(C)(=O)=O)cc2)ccc1O | 15.4%
23 | CS(=O)(=O)c1ccc(C#CC(=O)c2ccc(F)cc2)cc1 | 83.8%
24 | CC(=O)Oc1ccccc1C(=O)O [ASPIRIN] | 29.7%
25 | O=C(O)/C=C/c1ccc(O)c(O)c1 [CAFFEIC ACID] | 47.2%
26 | CC(Cc1ccc(O)c(O)c1)C(C)Cc1ccc(O)c(O)c1 (stereo not drawn) [NORDIHYDROGUAIARETIC ACID] | 45.8%

molecular target: T1, 5-lipoxygenase (Solanum tuberosum, UniProt O49150); assay: Inhibitory activity against potato 5LOX; settings: not given
T1 sequence (O49150 whole entry): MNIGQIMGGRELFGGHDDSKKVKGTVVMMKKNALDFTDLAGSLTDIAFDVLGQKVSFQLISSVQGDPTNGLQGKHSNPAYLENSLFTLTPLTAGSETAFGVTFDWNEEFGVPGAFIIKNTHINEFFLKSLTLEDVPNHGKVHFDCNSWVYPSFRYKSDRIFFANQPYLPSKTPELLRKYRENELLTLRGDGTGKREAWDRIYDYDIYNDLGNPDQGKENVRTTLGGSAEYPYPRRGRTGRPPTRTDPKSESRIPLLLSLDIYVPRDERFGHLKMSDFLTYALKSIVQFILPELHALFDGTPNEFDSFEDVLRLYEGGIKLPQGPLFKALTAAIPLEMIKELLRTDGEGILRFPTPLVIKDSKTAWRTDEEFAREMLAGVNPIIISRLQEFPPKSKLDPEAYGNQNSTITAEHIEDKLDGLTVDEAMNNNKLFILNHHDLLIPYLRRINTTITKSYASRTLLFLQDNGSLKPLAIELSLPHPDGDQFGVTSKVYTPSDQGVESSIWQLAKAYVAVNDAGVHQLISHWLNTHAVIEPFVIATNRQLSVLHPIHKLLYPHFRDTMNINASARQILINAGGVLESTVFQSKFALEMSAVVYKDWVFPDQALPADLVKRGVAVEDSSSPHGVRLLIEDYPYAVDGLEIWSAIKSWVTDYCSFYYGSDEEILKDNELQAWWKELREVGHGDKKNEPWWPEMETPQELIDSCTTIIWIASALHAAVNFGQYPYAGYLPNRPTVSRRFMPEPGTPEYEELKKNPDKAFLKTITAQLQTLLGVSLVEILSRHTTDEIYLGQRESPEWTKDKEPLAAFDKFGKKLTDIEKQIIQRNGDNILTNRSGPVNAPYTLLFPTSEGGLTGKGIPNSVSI

Row | Compound | pIC50
27 | CS(=O)(=O)c1ccc(C#CC(=O)c2ccc(C(F)(F)F)cc2)cc1 | < 5.00
28 | COc1cccc(C(=O)C#Cc2ccc(S(C)(=O)=O)cc2)c1 | 5.05
29 | COc1cc(C(=O)C#Cc2ccc(S(C)(=O)=O)cc2)cc(OC)c1OC | 5.15
30 | Cc1ccc(C(=O)C#Cc2ccc(S(C)(=O)=O)cc2)cc1 | < 5.00
31 | COc1ccc(C(=O)C#Cc2ccc(S(C)(=O)=O)cc2)cc1O | < 5.00
32 | CS(=O)(=O)c1ccc(C#CC(=O)c2ccc(F)c(F)c2)cc1 | 6.40
33 | CS(=O)(=O)c1ccc(C#CC(=O)c2cccc(O)c2)cc1 | 6.52
34 | COc1ccc(C(=O)C#Cc2ccc(S(C)(=O)=O)cc2)cc1 | < 5.00
35 | COc1cc(C(=O)C#Cc2ccc(S(C)(=O)=O)cc2)ccc1O | < 5.00
36 | CS(=O)(=O)c1ccc(C#CC(=O)c2ccc(F)cc2)cc1 | < 5.00

system: Rattus norvegicus; assay: Inhibitory activity against 4% NaCl-induced abdominal constriction in Sprague-Dawley rat after 60 min of 30 mg/kg, po; format: functional; settings: Abdomen, 1 h

Row | Compound | inhibition in vivo at 30 mg/kg
37 | CS(=O)(=O)c1ccc(C#CC(=O)c2ccc(C(F)(F)F)cc2)cc1 | 66.2%
38 | COc1cccc(C(=O)C#Cc2ccc(S(C)(=O)=O)cc2)c1 | 54.7%
39 | COc1cc(C(=O)C#Cc2ccc(S(C)(=O)=O)cc2)cc(OC)c1OC | 46.2%
40 | CS(=O)(=O)c1ccc(C#CC(=O)c2ccc(F)c(F)c2)cc1 | 46.1%
41 | CS(=O)(=O)c1ccc(C#CC(=O)c2ccc(C#N)cc2)cc1 | 36.2%
42 | COc1ccc(C(=O)C#Cc2ccc(S(C)(=O)=O)cc2)cc1 | 38.6%
43 | COc1cc(C(=O)C#Cc2ccc(S(C)(=O)=O)cc2)ccc1O | 45.8%
44 | CS(=O)(=O)c1ccc(C#CC(=O)c2ccc(F)cc2)cc1 | 72%
45 | CC(=O)Oc1ccccc1C(=O)O [ASPIRIN] | 46.4%
46 | O=C(O)/C=C/c1ccc(O)c(O)c1 [CAFFEIC ACID] | 58.3%
47 | CC(Cc1ccc(O)c(O)c1)C(C)Cc1ccc(O)c(O)c1 (stereo not drawn) [NORDIHYDROGUAIARETIC ACID] | 62.5%

species on record: Rattus norvegicus; assay: animal or person; settings: Sprague-Dawley, Abdomen, po, 0.5 h, read-out: Inhibition
Description: Inhibitory activity against 4% NaCl-induced abdominal constriction in Sprague-Dawley rat after 30 min of 5 mg/kg, po

Row | Compound | inhibition in vivo at 5 mg/kg
48 | Cc1ccc(-c2cc(C(F)(F)F)nn2-c2ccc(S(N)(=O)=O)cc2)cc1 [CELECOXIB] | 69.3%
